Results published in patent US5227299A, “NADH kinase and a process for producing the same” (Noda Institute for Scientific Research, priority 1991, dated 1993).
Values belong to the compound of their own block, whether it stands above or below them.

Columns and labels:
[1] = system: NADH kinase B; settings: Table 3, NADH kinase B; cited from earlier work
[2] = system: NADH kinase (the present enzyme); experiment: Substrate specificity of the present enzyme (NADH vs NAD+); assay type: biochemical, Pichia membranaefaciens; settings: for Specificity (relative activity, NADH = 100): Table 3, present enzyme; for Relative activity (%): substrate NADH or NAD+, ATP, pH 8.5, 30° C., 20 minutes, percentage based on NADH
Procedure: The substrate specificity of the present enzyme was examined under the following reaction conditions. […]
To 0.9 ml of each of the above substrate solutions containing NADH or NAD^+ was added 0.1 ml of 23 U/ml of the present enzyme, and the reaction was carried out at 30° C. for 20 minutes. Then, the reaction was terminated by heat treatment at 100° C. for 2 minutes, and the denatured protein was removed, after which the amount of NADPH or NADP^+ produced by the reaction of the corresponding substrate was measured as follows. As a control solution, there was used a mixture of each substrate solution and the present enzyme in which the reaction had been terminated immediately after mixing them.
With 1 ml of each of the reaction solutions obtained in the above was mixed 1 ml of a color-producing solution consisting of 10 mM G-6-P, 50 mM HEPPS buffer (pH 8.0), 10 mM magnesium chloride, 0.1% bovine serum albumin, 2.5 IU/ml G-6-P dehydrogenase (NADP^+ -dependent), 5 IU/ml diaphorase and 250 μM 2,6-dichlorophenolindophenol. The resulting mixture was immediately introduced into a constant-temperature cuvette of STASAR III spectrophotometer of Gilford and subjected to reaction at 30° C. Simultaneously with the reaction, the change of absorbance at 600 nm was measured with the lapse of time, and the difference (ΔOD600 nm /min) between absorbance values 1 minute and 2 minutes after the initiation of the coloration reaction was taken as a measured value. As to relative activity (%), a measured value (ΔOD600 nm /min) obtained by using NAD^+ as a substrate was shown as a percentage based on a measured value (ΔOD600 nm /min) obtained by using NADH as a substrate.

[3] = system: NADH kinase A; settings: Table 3, NADH kinase A; cited from earlier work
[4] = system: NADH kinase (the present enzyme); experiment: Inhibition, activation and stabilization of the present enzyme; assay type: biochemical, Pichia membranaefaciens

Structure (SMILES): NC(=O)c1ccc[n+]([C@@H]2O[C@H](COP(=O)([O-])OP(=O)(O)OC[C@H]3O[C@@H](n4cnc5c(N)ncnc54)[C@H](O)[C@@H]3O)[C@@H](O)[C@H]2O)c1 [NAD^+]
Specificity (relative activity, NADH = 100) [1]: 1.6
Action of the present enzyme on the substrate [2]: hardly acts
Specificity (relative activity, NADH = 100) [2]: 0.9
Relative activity (%) [2]: 0.9%
Specificity (relative activity, NADH = 100) [3]: 1.7

Stabilization of the present enzyme [4]: stabilized
Structure (SMILES): [Mn+2] [Mn^2+]

Structure (SMILES): N.N.O=S(=O)(O)O [ammonium sulfate]
Stabilization of the present enzyme [4]: stabilized

Stabilization of the present enzyme [4]: stabilized
Structure (SMILES): OC[C@H]1O[C@@](CO)(O[C@H]2O[C@H](CO)[C@@H](O)[C@H](O)[C@H]2O)[C@@H](O)[C@@H]1O [saccharose]

Structure (SMILES): NC(=O)C1=CN([C@@H]2O[C@H](COP(=O)(O)OP(=O)(O)OC[C@H]3O[C@@H](n4cnc5c(N)ncnc54)[C@H](O)[C@@H]3O)[C@@H](O)[C@H]2O)C=CC1 [NADH]
Specificity (relative activity, NADH = 100) [1]: 100
Action of the present enzyme on the substrate [2]: very specific
Specificity (relative activity, NADH = 100) [2]: 100
Relative activity (%) [2]: 100%
Specificity (relative activity, NADH = 100) [3]: 100

Stabilization of the present enzyme [4]: stabilized
Structure (SMILES): [Mg+2] [Mg^2+]

Structure (SMILES): CCCCCCCCCCCCOS(=O)(=O)[O-].[Na+] [SDS, sodium lauryl sulfate, reference compound]
Inhibition of the present enzyme [4]: strongly inhibited

Inhibition of the present enzyme [4]: strongly inhibited
Structure (SMILES): [Zn+2] [Zn^2+]

Structure (SMILES): O=C(O)c1cc[c]([Hg][Cl])cc1 [p-CMB, p-chloromercuribenzoic acid, reference compound]
Inhibition of the present enzyme [4]: strongly inhibited

Structure (SMILES): [Hg+2] [Hg^2+]
Inhibition of the present enzyme [4]: strongly inhibited

Structure (SMILES): [Cd+2] [Cd^2+]
Inhibition of the present enzyme [4]: strongly inhibited

Inhibition of the present enzyme [4]: strongly inhibited
Structure (SMILES): [Cu+2] [Cu^2+]

Structure (SMILES): [Pb+2] [Pb^2+]
Inhibition of the present enzyme [4]: strongly inhibited

Activation of the present enzyme [4]: activated
Structure (SMILES): CC(=O)O [sodium acetate]
